Reference: ChEMBL document CHEMBL1127066, “Discovery and structure-activity relationship of a series of 1-carba-1-dethiacephems exhibiting activity against methicillin-resistant Staphylococcus aureus” (J Med Chem, 1993)
In brackets after ≈: the same amount, converted by molar mass.

System: Staphylococcus aureus
Test: In vitro antimicrobial activity against Staphylococcus aureus X400 strain
Type: functional
For `Nc1nc(/C(=N\OCCF)C(=O)N[C@@H]2C(=O)N3C(C(=O)[O-])=C(Sc4nc5ccncc5s4)CC[C@H]23)cs1.[Na+]`, the MIC was 8 µg/mL.
Compound `CC(=O)c1sc(SC2=C(C(=O)[O-])N3C(=O)[C@@H](NC(=O)/C(=N/OCCF)c4csc(N)n4)[C@H]3CC2)nc1C.[Na+]` has an MIC of 128 µg/mL.

System: Klebsiella
Test: In vitro antimicrobial activity against Klebsiella X26 strain
Type: functional
For `Nc1nc(/C(=N\OCCF)C(=O)N[C@@H]2C(=O)N3C(C(=O)[O-])=C(Sc4nc5ccncc5s4)CC[C@H]23)cs1.[Na+]`, the MIC was 0.06 µg/mL.
For `CC(=O)c1sc(SC2=C(C(=O)[O-])N3C(=O)[C@@H](NC(=O)/C(=N/OCCF)c4csc(N)n4)[C@H]3CC2)nc1C.[Na+]`, the MIC was 0.125 µg/mL.

System: Pseudomonas aeruginosa
Test: Antimicrobial activity against Pseudomonas PS18 strain
Type: functional
Work on `Nc1nc(/C(=N\OCCF)C(=O)N[C@@H]2C(=O)N3C(C(=O)[O-])=C(Sc4nc5ccncc5s4)CC[C@H]23)cs1.[Na+]` yielded an MIC of 64 µg/mL.
With `CC(=O)c1sc(SC2=C(C(=O)[O-])N3C(=O)[C@@H](NC(=O)/C(=N/OCCF)c4csc(N)n4)[C@H]3CC2)nc1C.[Na+]` the MIC was > 128 µg/mL.

System: Staphylococcus aureus
Test: Minimum inhibitory concentration against heteroresistant strain of Staphylococcus aureus 430 in 4% of NaCl
Type: functional
Compound `CCOc1ccc2ccccc2c1C(=O)N[C@@H]1C(=O)N2[C@@H]1SC(C)(C)[C@@H]2C(=O)O` [NAFCILLIN] has an MIC of 64 µg/mL (≈ 154 µM).

System: Staphylococcus aureus
Test: Minimum inhibitory concentration against homoresistant strain of Staphylococcus aureus 447 in 4% of NaCl
Type: functional
`CCOc1ccc2ccccc2c1C(=O)N[C@@H]1C(=O)N2[C@@H]1SC(C)(C)[C@@H]2C(=O)O` [NAFCILLIN] showed an MIC of 128 µg/mL (≈ 309 µM).

Target: not listed separately
Test: Tested against penicillin binding protein 2a (PBP2a) enzyme.
With `CCOc1ccc2ccccc2c1C(=O)N[C@@H]1C(=O)N2[C@@H]1SC(C)(C)[C@@H]2C(=O)O` [NAFCILLIN] the IC50 was 200 µg/mL (≈ 483 µM).

System: Streptococcus pneumoniae
Test: In vitro antimicrobial activity against Streptococcus pneumoniae PARK strain
Type: functional
With `Nc1nc(/C(=N\OCCF)C(=O)N[C@@H]2C(=O)N3C(C(=O)[O-])=C(Sc4nc5ccncc5s4)CC[C@H]23)cs1.[Na+]` the MIC was < 0.008 µg/mL.
In the case of `CC(=O)c1sc(SC2=C(C(=O)[O-])N3C(=O)[C@@H](NC(=O)/C(=N/OCCF)c4csc(N)n4)[C@H]3CC2)nc1C.[Na+]`, the MIC was < 0.008 µg/mL.

System: Staphylococcus aureus
Test: Minimum inhibitory concentration against methicillin-resistant Staphylococcus aureus 430 (MRSA) in vitro using trypticase soy broth (TSB) with 4% NaCl
Type: functional
Work on `CCOc1ccc2ccccc2c1C(=O)N[C@@H]1C(=O)N2[C@@H]1SC(C)(C)[C@@H]2C(=O)O` [NAFCILLIN] yielded an MIC of 32 µg/mL (≈ 77.2 µM).

System: Staphylococcus aureus
Test: Minimum inhibitory concentration against sensitive strain of Staphylococcus aureus 446 in the absence of NaCl
Type: functional
`CCOc1ccc2ccccc2c1C(=O)N[C@@H]1C(=O)N2[C@@H]1SC(C)(C)[C@@H]2C(=O)O` [NAFCILLIN] gave an MIC of 0.25 µg/mL (≈ 0.603 µM).

System: Pseudomonas aeruginosa
Test: In vitro antimicrobial activity against Pseudomonas X239 strain
Type: functional
In the case of `Nc1nc(/C(=N\OCCF)C(=O)N[C@@H]2C(=O)N3C(C(=O)[O-])=C(Sc4nc5ccncc5s4)CC[C@H]23)cs1.[Na+]`, the MIC was > 128 µg/mL.
With `CC(=O)c1sc(SC2=C(C(=O)[O-])N3C(=O)[C@@H](NC(=O)/C(=N/OCCF)c4csc(N)n4)[C@H]3CC2)nc1C.[Na+]` the MIC was > 128 µg/mL.

System: Staphylococcus aureus
Test: In vitro antimicrobial activity against Staphylococcus aureus X1.1 strain
Type: functional
`Nc1nc(/C(=N\OCCF)C(=O)N[C@@H]2C(=O)N3C(C(=O)[O-])=C(Sc4nc5ccncc5s4)CC[C@H]23)cs1.[Na+]` showed an MIC of 0.125 µg/mL.
`CC(=O)c1sc(SC2=C(C(=O)[O-])N3C(=O)[C@@H](NC(=O)/C(=N/OCCF)c4csc(N)n4)[C@H]3CC2)nc1C.[Na+]` gave an MIC of 0.5 µg/mL.

System: Staphylococcus aureus
Test: Minimum inhibitory concentration against heteroresistant strain of Staphylococcus aureus 430 in the absence of NaCl
Type: functional
Work on `CCOc1ccc2ccccc2c1C(=O)N[C@@H]1C(=O)N2[C@@H]1SC(C)(C)[C@@H]2C(=O)O` [NAFCILLIN] yielded an MIC of 1 µg/mL (≈ 2.41 µM).

System: Enterobacter cloacae
Test: In vitro evaluation of antimicrobial activity against Enterobacter cloacae EB5 strain
Type: functional
`Nc1nc(/C(=N\OCCF)C(=O)N[C@@H]2C(=O)N3C(C(=O)[O-])=C(Sc4nc5ccncc5s4)CC[C@H]23)cs1.[Na+]` gave an MIC of 2 µg/mL.
Work on `CC(=O)c1sc(SC2=C(C(=O)[O-])N3C(=O)[C@@H](NC(=O)/C(=N/OCCF)c4csc(N)n4)[C@H]3CC2)nc1C.[Na+]` yielded an MIC of 8 µg/mL.

System: Staphylococcus aureus
Test: Minimum inhibitory concentration against homoresistant strain of Staphylococcus aureus 447 in the absence of NaCl
Type: functional
For `CCOc1ccc2ccccc2c1C(=O)N[C@@H]1C(=O)N2[C@@H]1SC(C)(C)[C@@H]2C(=O)O` [NAFCILLIN], the MIC was 128 µg/mL (≈ 309 µM).

System: Haemophilus influenzae
Test: In vitro antimicrobial activity against Haemophilus influenzae C.L. strain
Type: functional
With `Nc1nc(/C(=N\OCCF)C(=O)N[C@@H]2C(=O)N3C(C(=O)[O-])=C(Sc4nc5ccncc5s4)CC[C@H]23)cs1.[Na+]` the MIC was 0.015 µg/mL.
In the case of `CC(=O)c1sc(SC2=C(C(=O)[O-])N3C(=O)[C@@H](NC(=O)/C(=N/OCCF)c4csc(N)n4)[C@H]3CC2)nc1C.[Na+]`, the MIC was 0.06 µg/mL.

System: Staphylococcus epidermidis
Test: In vitro antimicrobial activity against Staphylococcus epidermidis 270 strain
Type: functional
`Nc1nc(/C(=N\OCCF)C(=O)N[C@@H]2C(=O)N3C(C(=O)[O-])=C(Sc4nc5ccncc5s4)CC[C@H]23)cs1.[Na+]` showed an MIC of 2 µg/mL.
In the case of `CC(=O)c1sc(SC2=C(C(=O)[O-])N3C(=O)[C@@H](NC(=O)/C(=N/OCCF)c4csc(N)n4)[C@H]3CC2)nc1C.[Na+]`, the MIC was 8 µg/mL.

System: Escherichia coli
Test: In vitro evaluation of antimicrobial activity against Escherichia coli EC14 strain
Type: functional
Work on `Nc1nc(/C(=N\OCCF)C(=O)N[C@@H]2C(=O)N3C(C(=O)[O-])=C(Sc4nc5ccncc5s4)CC[C@H]23)cs1.[Na+]` yielded an MIC of 0.25 µg/mL.
With `CC(=O)c1sc(SC2=C(C(=O)[O-])N3C(=O)[C@@H](NC(=O)/C(=N/OCCF)c4csc(N)n4)[C@H]3CC2)nc1C.[Na+]` the MIC was 1 µg/mL.

System: Staphylococcus aureus
Test: In vitro antimicrobial activity against Staphylococcus aureus S13E strain
Type: functional
In the case of `Nc1nc(/C(=N\OCCF)C(=O)N[C@@H]2C(=O)N3C(C(=O)[O-])=C(Sc4nc5ccncc5s4)CC[C@H]23)cs1.[Na+]`, the MIC was 4 µg/mL.
`CC(=O)c1sc(SC2=C(C(=O)[O-])N3C(=O)[C@@H](NC(=O)/C(=N/OCCF)c4csc(N)n4)[C@H]3CC2)nc1C.[Na+]` gave an MIC of 32 µg/mL.

System: Staphylococcus aureus
Test: Minimum inhibitory concentration against sensitive strain of Staphylococcus aureus 446 in 4% of NaCl
Type: functional
With `CCOc1ccc2ccccc2c1C(=O)N[C@@H]1C(=O)N2[C@@H]1SC(C)(C)[C@@H]2C(=O)O` [NAFCILLIN] the MIC was 0.25 µg/mL (≈ 0.603 µM).

System: Staphylococcus epidermidis
Test: In vitro antimicrobial activity against Staphylococcus epidermidis 222 strain
Type: functional
Compound `Nc1nc(/C(=N\OCCF)C(=O)N[C@@H]2C(=O)N3C(C(=O)[O-])=C(Sc4nc5ccncc5s4)CC[C@H]23)cs1.[Na+]` has an MIC of 0.5 µg/mL.
`CC(=O)c1sc(SC2=C(C(=O)[O-])N3C(=O)[C@@H](NC(=O)/C(=N/OCCF)c4csc(N)n4)[C@H]3CC2)nc1C.[Na+]` gave an MIC of 2 µg/mL.

System: Staphylococcus aureus
Test: Minimum inhibitory concentration against methicillin-resistant Staphylococcus aureus 430 (MRSA) in vitro using trypticase soy broth (TSB)
Type: functional
For `CCOc1ccc2ccccc2c1C(=O)N[C@@H]1C(=O)N2[C@@H]1SC(C)(C)[C@@H]2C(=O)O` [NAFCILLIN], the MIC was 0.25 µg/mL (≈ 0.603 µM).
